Results as given in patent US20190350885A1, “PROPHYLAXIS TREATMENT FOR ACUTE MYELOID LEUKEMIA” (Indiana University Research and Technology Corporation, priority 2017, published 2019).
Entries after “also recorded” stand apart in the source; their conditions may differ.

Key:
[1] = tested on: Tet2-KO Lin-negative bone marrow cells; assay: CFU (colony forming unit) assay, primary and secondary replating; type: cell-based, mouse; conditions: primary and secondary plating, in vitro
Text: CFU assay. Bone marrow Lin-negative cells or LSK cells were isolated as described above and platted in a CFU assay using MethoCult™ GF M3434 (Stem Cell). Colonies were counted after 7-days of culture.

[2] = tested on: aged Tet2-KO mice; assay: Treatment of aged Tet2-KO mice with early signs of MPN; type: in vivo, mouse; conditions: for frequency of LSKs and CMPs / neutrophil counts (absolute numbers, burden) in peripheral blood / neutrophil frequency (percentage) in peripheral blood / platelet counts / red blood cell (RBC) counts (anemia) / serum IL-6 levels / spleen weight / splenomegaly / white blood cell (WBC) burden/count: treatment for 14 days; for early signs of MPN: aged Tet2-KO mice
Procedure: (§1) Lipopolysaccharide (LPS) was purchased from Sigma (Cat # L8643) and dissolved in sterile phosphate-buffered saline (PBS) prior to being given to the mice for one dose only (0.8 mg/kg, i.p.). APX3330 (also referred to herein as E3330) was dissolved in Cremophor:EtOH (1:1) (Cremophor were purchased from Sigma, Cat # C5135) for making solution stock and then diluted in PBS prior to be used for pre-LPS treatment or post-LPS treatment (20 mg/kg, twice a day, i.p.). SHP099 (provided by Norvartis), was dissolved in 0.5% Methylcellulose (Sigma, Cat# M0262) and 0.1% Tween-80 (Fisher Scientific, Cat #BP338-500) and fed to animals by gavage (daily, 50 mg/kg). Male and female mice between 3-4 weeks (juvenile mice) or 8-16 weeks (adult mice) of age were used for LPS or LPS plus APX3330 experiments. Age and sex matched mice were always used as naïve (Day 0) controls. Aged Tet2-KO mice (male or female, 6-8 months of age) were used for APX3330 or SHP099 treatment in FIGS. 11A-11D.
(§2) Hematological analysis on peripheral blood (PB, from tail-bleeding) was run by an automated cell counter machine (Drew Hemavet 950). Total bone marrow (BM) cells were harvested from two femurs and two tibias of mice and filtered on 50-μm sterile filters. BM cells were always kept on ice or in refrigeration and stored in sterile blocking buffer containing 2% rat-serum prior to analysis. BM cellularity (viable cell counts) was analyzed by an automated cell counter (Beckman the Vi-CELL™ Cell Counter for Cell Viability Analyzer).
(§3) Flow cytometry. Non-lysed BM cells were used for analysis of erythroid lineage and progenitor cells (Ter119 and CD71 staining). Remaining flow cytometry analysis was performed on lysed bone marrow cells (Lysis Buffer, BD, Cat #555899). Antibodies against Ter119, Mac1, Gr1, B220, CD3, CD4 and CD8 were used for mature cells labeling (Linage labeling). Progenitor cells were labeled and analyzed by indicated markers. Antibody-labeled BM cells were run on a BD FACS-CANTO II machine with a two-laser and six-filter configuration. The properly compensated flow data were analyzed by Flow Jo software (V10.2). Events plotting, calculation of frequency and mean of fluorescence intensity (MFI), and histogram overlaying were analyzed by Flow Jo software.
Multiplex cytokine assays. Serum samples were prepared from PB (tail-bleeding) and diluted in sterile PBS (1 to 2 dilution(s)). Thirty-one cytokines or chemokines were quantified by multiplex immunoassay with a BioPlex 200 instrument (Eve Technologies, Mouse Cytokine Array/Chemokine Array 31-Plex, Cat # MD31).
Statistics. All experimental procedures on Tet2-KO samples were run in parallel with wildtype controls (sex and age matched littermate controls when possible) for observing experimental variabilities. Analysis of grouped data was not blinded and no samples were excluded. Aged Tet2-KO mice were randomized into two groups for treatment with APX3330 or vehicle, SHP099 or vehicle (FIGS. 11A-11D). P-value was calculated using an unpaired t-test for comparing means of two groups (GraphPad Prism 6.0). Error bars in FIGS. 1-10 and 11A indicate the standard error of mean (s.e.m.) while error bars in FIG. 11C indicate the standard deviation (s.d.). Except that the secondary cBMT was performed in only one independent experiment for each group, all other assays were performed in at least two independent experiments with at least 3-5 biological replicates in total.
Furthermore, aged Tet2-KO maintained higher level of serum IL-6 compared to wildtype mice (FIG. 13H). 6-month old Tet2-KO mice were treated with APX3330 or SHP099 to assess the potential therapeutic benefit of these drugs in older mice (daily treatment for 14 days, FIG. 13I).

[3] = tested on: Tet2-KO mice; assay: LPS-induced acute inflammation (emergency granulopoiesis/hematopoiesis) in mice; type: in vivo, mouse; conditions: for LPS-induced expansion of LSK cells in bone marrow / LPS-induced emergency neutrophil production in peripheral blood (emergency granulopoiesis): LPS 0.8 mg/kg i.p. one dose, drug two days before and two days after LPS, day 2 post LPS; for LPS-induced emergency neutrophil production in peripheral blood (emergency granulopoiesis): APX3330 20 mg/kg twice a day i.p., SHP099 50 mg/kg daily gavage
Text: Mice, LPS treatment and peripheral blood analysis. All mice were bred and maintained under specified pathogen-free (SPF) conditions at an animal facility at Indiana University School of Medicine. Experiments with mice were approved by the Institutional Animal Care and Use Committee (IACUC) of Indiana University School of Medicine. Tet2-knockout mice (Tet2^−/−, or Tet2-KO, CD45.2) is on C57BL/6 genetic background and has been previously described in Li et al., Blood 118, 4509-4518 (2011). Normal C57BL/6 (wild type, CD45.2) mice were purchased from The Jackson Laboratory and used as controls for all experiments. Whenever possible littermates were used as controls for all experiments.
as §1, §2, §3
It was next examined if APX3330 or SHP099 could repress inflammation and “emergency hematopoiesis” in Tet2-KO mice in vivo. It was first assessed if APX3330 or SHP099 could normalize LPS-induced acute inflammation. Before challenging the mice with LPS, wildtype and Tet2-KO mice were prophylactically treated with APX3330 or SHP099 for two days. Post LPS treatment, APX3330 or SHP099 was continuously injected in these mice for another two days (FIG. 13A). On day 2, post LPS treatment, mice were sacrificed and analyzed.

[4] = tested on: Morrbid promoter; assay: CHIP-qPCR assay of IκBζ and Stat3 binding; type: cell-based, mouse; conditions: Tet2-KO Lin-negative bone marrow cells
Text: CHIP-qPCR assay. BM Lin-negative cells were used to extract chromatin DNA using MAGnify™ Chromatin Immunoprecipitation System (ThermoFisher) according to the manufacturer's instruction. CHIP purified chromatin DNA and input DNA were normalized to identical concentration for qPCR validation and enrichment analysis (1% enrichment of input level was defined as unit 1). The following antibodies were used for chromatin precipitation:Anti-IκBζ and Anti-Stat3 (Cell Signaling Technologies).

[5] = tested on: phospho-Stat3; assay: phospho-Stat3 expression in Tet2-KO Lin-negative cells; type: cell-based, mouse
[6] = aged (6-month old) Tet2-KO mice
[7] = aged (6-month old) Tet2-KO mice, listed as E3330

Row | SMILES | colony forming ability (CFU formation) [1] | frequency of LSKs and CMPs [2, 6] | neutrophil counts (absolute numbers, burden) in peripheral blood [2, 6] | neutrophil frequency (percentage) in peripheral blood [2, 6] | platelet counts [2, 6] | red blood cell (RBC) counts (anemia) [2, 6] | serum IL-6 levels [2, 6] | spleen weight / splenomegaly [2, 6] | white blood cell (WBC) burden/count [2, 6] | early signs of MPN [2] | LPS-induced expansion of LSK cells in bone marrow [3] | LPS-induced emergency neutrophil production in peripheral blood (emergency granulopoiesis) [3] | IκBζ and Stat3 binding to Morrbid promoter [4] | other results
1 | CCCCCCCCCC(=CC1=C(C)C(=O)C(OC)=C(OC)C1=O)C(=O)O [APX3330] | normalization of colony formation; also recorded: block the enhanced colony forming activity | failed to reverse | significantly reduced | significantly reduced | restored | restores; also recorded: rescued to normal levels | reduced | a reduction in spleen weight was also observed in drug treated Tet2-KO mice, although it did not reach statistical significance; also recorded: failed to alter splenomegaly | significantly reduce; also recorded: restores | reverses early signs of MPN | significant correction; also recorded: effectively repressed; also recorded: represses the expansion of LSK cells | significant correction in the enhanced production of neutrophils; also recorded: effectively repressed; also recorded: represses emergency neutrophil production | reduced IKBζ and Stat3 binding to Morrbid promoter | colony forming ability (CFU formation) ([1]; listed as E3330): corrected the enhanced colony forming ability; hematocrits (HCT) [2, 6]: rescued to normal levels; neutrophil counts (absolute numbers, burden) in peripheral blood [2, 7]: rescue; neutrophil frequency (percentage) in peripheral blood [2, 7]: rescue; serum IL-6 levels [2, 7]: rescue; early signs of MPN ([2]; listed as E3330): reversed early signs of MPN; LPS-induced emergency neutrophil production in peripheral blood (emergency granulopoiesis) ([3]; listed as E3330): repressed; LPS-induced expansion of LSK cells in bone marrow ([3]; listed as E3330): repressed; bone marrow cellularity ([3]; LPS-treated wild type and Tet2-KO mice, short-term treatment): maintained normal bone marrow cellularity; IκBζ and Stat3 binding to Morrbid promoter ([4]; listed as E3330): rescues the enhanced binding of IκBζ and Stat3 to the Morribid promoter
2 | CC1(N)CCN(c2cnc(-c3cccc(Cl)c3Cl)c(N)n2)CC1 [SHP099, 6-(4-amino-4-methyl-1-piperidinyl)-3-(2,3-dichlorophenyl)-2-pyrazinamine] | decreased; also recorded: block the enhanced colony forming activity; also recorded: corrected the enhanced colony forming ability | failed to reverse | significantly reduce; also recorded: rescue | rescue | restored | restores | reduced; also recorded: rescue | a reduction in spleen weight was also observed in drug treated Tet2-KO mice, although it did not reach statistical significance | significantly reduce; also recorded: restores | reversed early signs of MPN | significant correction; also recorded: effectively repressed | significant correction in the enhanced production of neutrophils; also recorded: effectively repressed | decreased; also recorded: rescues the enhanced binding of IκBζ and Stat3 to the Morribid promoter | expression of phospho-Stat3 [5]: decreased expression of phospho-Stat3
